Results reported in patent publication US10507206B2, “Oral formulations and lipophilic salts of methylnaltrexone” (Wyeth, LLC, priority 2010, dated 2019).

Tests used:
[1] = reported value for comparison; cited from earlier work
[2] = apparent octanol-water partition coefficient (APC) of MNTX salts by HPLC; assay type: physicochemical; conditions: 1-octanol/water, aqueous phase pH between 4.5 and 6.8; for Log P: room temperature; for APC: shaken overnight at room temperature
Source text: The term “apparent partition coefficient,” as used herein, refers to the ratio of concentrations of a compound in any form in the two phases of a mixture of two immiscible solvents at equilibrium. In certain embodiments, the two immiscible solvents are octanol and water. The apparent partition coefficient may be determined under various conditions, for example, temperature, pH, concentration, etc. Apparent partition coefficients have been found useful in estimating the distribution of compounds in the body. Higher apparent partition coefficients denote a more hydrophobic (more lipophilic) compound, while lower apparent partition coefficients denote a hydrophilic compound. The apparent partition coefficient of a compound may be determined by procedures known in the art, for example, in the U.S. Pharmacopeia. The apparent partition coefficient may be determined by the procedure used to determine the apparent partition coefficients of methylnaltrexone dodecyl sulfate and methylnaltrexone heptyl sulfate in the Examples.
As a measure of lipophilicity of the resulting ion pair, a solution of the composition yields an apparent octanol/water partition coefficient for methylnaltrexone of at least 0.25 at a pH between 1 and 4. The apparent octanol/water partition coefficient as used herein is determined at room temperature at a concentration of approximately 0.5 mg/mL. Exemplary methods for the determination of apparent octanol/water partition coefficient of methylnaltrexone salts are described in the Examples below.
Ion pairs of methylnaltrexone with amphiphilic pharmaceutically acceptable excipients were prepared and the apparent octanol-water partition coefficient (APC) was measured and compared to that of methylnaltrexone bromide. A pre-determined amount of each of MNTX-heptyl sulfate and MNTX-dodecyl sulfate was dissolved in 2 mL of 1-octanol that was saturated with water. Two mL of water that was saturated with 1-octanol was added to each MNTX salt solution. The mixtures were shaken overnight at room temperature, and 1 mL of the 1-octanol phase was then diluted to 10 mL with the mobile phase used for chromatographic (HPLC) analysis of the samples. And 1 mL of the aqueous phase was diluted to 5 mL with the mobile phase. The samples were then analyzed by HPLC to determine the apparent partition coefficient and log P for each MNTX salt. The pH of the aqueous phases for each of the salts was between 4.5 and 6.8.

[3] = intravenous 0.01-0.37 mg/kg, methadone maintenance patients; cited from earlier work
[4] = tested on: constipation in methadone maintenance patients; conditions: intravenous 0.01-0.37 mg/kg; cited from earlier work
[5] = oral, in general; cited from earlier work

For C[N@+]1(CC2CC2)CC[C@]23c4c5ccc(O)c4O[C@H]2C(=O)CC[C@@]3(O)[C@H]1C5.[Br-] [MNTX, (R)—N-(cyclopropylmethyl) noroxymorphone methobromide], the “reported Log P” value [1] is given as −1.605 and the reported partition coefficient [1] is given as 0.025.

With CCCCCCCOS(=O)(=O)[O-].C[N+]1(CC2CC2)CCC23c4c5ccc(O)c4OC2C(=O)CCC3(O)C1C5 (stereo not shown) [MNTX-heptyl sulfate, methylnaltrexone heptyl sulfate] the “Log P” value [2] was 0.292 and the APC [2] was 1.961.

For C[N+]1(CC2CC2)CC[C@]23c4c5ccc(O)c4O[C@H]2C(=O)CC[C@@]3(O)[C@H]1C5 (stereo partly drawn) [methylnaltrexone, (R)—N-methylnaltrexone], the “average peak plasma levels” value [3] is listed as 162 ng/mL, the “peak plasma levels, range” value [3] is listed as 30 to 774 ng/mL and the laxation [4] is listed as “induced “immediate” laxation”. For the same compound, the “methylnaltrexone absorbed into the bloodstream when delivered orally” value [5] was “less than 5%”.

For “methylnaltrexone dodecyl sulfate [MNTX-dodecyl sulfate]”, the “Log P” value [2] was 1.505 and the APC [2] was 32.014.
